In publication PMC12845261, “Design, Synthesis, and Biological Evaluation of N-Acyl-Hydrazone-Linked Quinazolinone Derivatives with Antioxidant, Antimicrobial, and Anticancer Potential” (Pharmaceuticals, 2025):
In brackets after ≈: the same amount, converted by molar mass.

Tests used:
Assay type in all cases: cell-based
P. aeruginosa ATCC 27853 [1] = experiment: Quantitative antimicrobial activity, serial binary microdilution (MIC, IC50); details: Pseudomonas aeruginosa, ATCC27853, 24 h, 37 °C, DMSO control 1.25
Procedure: (§1) For the evaluation of antimicrobial activity, the following reference strains were used: S. aureus ATCC 25923, E. faecalis ATCC 29212, E. coli ATCC 25922, P. aeruginosa ATCC 27853 and C. albicans ATCC 10231.
(§2) Quantitative analysis was performed using the method of serial binary microdilutions in liquid medium (Tryptone Soy Broth for bacteria and Sabouraud Broth for yeasts) in plates with 96 wells. Stock solutions of 10 mg/mL were made in DMSO, and the range of concentrations tested for each compound was 5000–0.16 μg/mL. Simultaneously, the DMSO control was carried out under the same working conditions. Each well was inoculated with 10 μL of microbial suspension, adjusted to a density of 1.5 × 10^8 CFU/mL prepared from 18 to 24 h cultures. After 24 h of incubation at 37 °C, microbial growth and multiplication were evaluated both macroscopically and spectrophotometrically at 620 nm to establish the MIC values. […] Blanks were made for each sample concentration, and the formula was applied: Microbial viability(%)=Asample−Ablank/Astrain control−Asterility control·100

S. aureus ATCC 25923 [2] = experiment: as above; details: 24 h; for MIC (mg/mL) / MIC: S. aureus ATCC 25923, 37 °C, DMSO control 2.5
Procedure: as §1, §2

E. faecalis ATCC 29212 [3] = experiment: as above; details: 37 °C, DMSO control 2.5; for MIC: Enterococcus faecalis, ATCC29212, 24 h
Procedure: as §1, §2

C. albicans ATCC 10231 [4] = experiment: as above; details: Candida albicans, ATCC10231, 24 h, 37 °C, DMSO control 1.25
Procedure: as §1, §2

E. coli ATCC 25922 [5] = experiment: as above; details: Escherichia coli, ATCC25922; E. coli ATCC 25922; 24 h, 37 °C; DMSO control 1.25
Procedure: as §1, §2

P. aeruginosa ATCC 27853 [6] = experiment: Microbicidal activity (MMC); details: DMSO control 2.5
Procedure: (§3) For the evaluation of antimicrobial activity, the following reference strains were used: S. aureus ATCC 25923, E. faecalis ATCC 29212, E. coli ATCC 25922, P. aeruginosa ATCC 27853 and C. albicans ATCC 10231. To determine the MMCs, 5 μL of culture was taken from each well and distributed on solid medium. The plates were incubated for 20–24 h at 37 °C. The lowest concentration at which no microbial growth was observed was considered MMC.

S. aureus ATCC 25923 [7] = experiment: Microbicidal activity (MMC); details: DMSO control 5
Procedure: as §3

C. albicans ATCC 10231 [8] = experiment: Microbicidal activity (MMC); details: DMSO control 5
Procedure: as §3

P. aeruginosa ATCC 27853 [9] = experiment: Microbial adhesion, crystal violet (MICMA); details: DMSO control 1.25
Procedure: as §1
(§4) Following quantitative analysis of antimicrobial activity, microbial adhesion was evaluated after methanol fixation and violet crystal staining (0.1%). The absorbance of the adhered biomass colored with violet crystal and resuspended in 33% acetic acid was measured at 490 nm.

S. aureus ATCC 25923 [10] = experiment: Microbial adhesion, crystal violet (MICMA); details: DMSO control 5
Procedure: as §1, §4

E. faecalis ATCC 29212 [11] = experiment: Microbial adhesion, crystal violet (MICMA); details: DMSO control 2.5
Procedure: as §1, §4

C. albicans ATCC 10231 [12] = experiment: Microbial adhesion, crystal violet (MICMA); details: DMSO control 1.25
Procedure: as §1, §4

E. coli ATCC 25922 [13] = experiment: Microbial adhesion, crystal violet (MICMA); details: DMSO control 5
Procedure: as §1, §4

[14] = test system: A431 (human epidermoid carcinoma); experiment: Cytotoxicity, MTT assay; details: for viability at 50 µM: A-431, 50 µM, compared to the control, read-out: Cell viability; for viability at 50 µM / Cell viability / Cytotoxic effect (in words): 24 h; for Cytotoxic effect (in words): 3.125 to 50 µM
Procedure: (§5) For the cytotoxicity screening of the N-acyl-hydrazone derivatives, three cell lines were employed: HT-29 (human colorectal adenocarcinoma), A431 (human epidermoid carcinoma), and VERO (non-tumoral African green monkey kidney epithelial cells). All cell lines were obtained from the American Type Culture Collection (ATCC, Manassas, VA, USA), and maintained in appropriate culture media as follows: HT-29 and A431 cells were cultured in Dulbecco’s Modified Eagle Medium (DMEM), while VERO cells were cultured in Minimum Essential Medium (MEM). Both culture media were supplemented with 10% fetal bovine serum (FBS) and 1% penicillin-streptomycin mix, to formulate the complete culture medium. All cell lines were incubated at 37 °C in a humidified atmosphere containing 5% CO2. […] For the cytotoxicity screening, cells were seeded into sterile 96-well plates at an initial density of 1 × 10^4 cells/well and allowed to adhere for 24 h. Subsequently, cells were treated with increasing concentrations (3.125 to 50 µM) of compounds 1a–1f and 2 for 24 h. In parallel, 5-fluorouracil (5-FU, Sigma Aldrich, St. Louis, MO, USA) was included as a reference drug and tested over the same concentration range under identical experimental conditions. […] For the experimental control, culture medium was refreshed at the time of treatment application. […] Louis, MO, USA). Briefly, the culture media were discarded from each well and replaced with a fresh solution of MTT (1 mg/mL). Plates were incubated for 4 h at 37 °C, and the resulting formazan crystals were solubilized with isopropanol. The absorbance was measured at 550 nm using the FlexStation III multimodal reader (Molecular Devices, San Jose, CA, USA). All experiments were performed in triplicate and repeated in three independent assays. Cell viability was calculated as a percentage relative to the untreated control using the formula Cell Viability (%) = (Abs treated/Abs control) × 100. Data were processed using GraphPad Prism 6.0 and presented as mean ± standard deviation (SD). Statistical analysis was performed using one-way analysis of variance (ANOVA) followed by Dunnett’s post hoc test for comparison with the untreated control group.

[15] = test system: HT-29 (human colorectal adenocarcinoma); experiment: Cytotoxicity, MTT assay; details: 24 h; for Cell viability: at corresponding concentrations (comparison with 5-FU), concentration not named; for Reduction of cell viability: at 50 µM and 25 µM, compared to the control; for Cytotoxic effect (in words): 3.125 to 50 µM
Procedure: as §5

E. faecalis ATCC 29212 [16] = experiment: Microbicidal activity (MMC); details: DMSO control >5
Procedure: as §3

[17] = Staphylococcus aureus, ATCC25923

Row | Compound | MIC (P. aeruginosa ATCC 27853 [1]) [µg/mL] | MIC (mg/mL) (S. aureus ATCC 25923 [2]) | MIC (S. aureus ATCC 25923 [2]; [17]) [µg/mL] | MIC (E. faecalis ATCC 29212 [3]) [µg/mL] | MIC (C. albicans ATCC 10231 [4]) [µg/mL] | MIC (E. coli ATCC 25922 [5]) [µg/mL] | MMC (P. aeruginosa ATCC 27853 [6]) [mg/mL] | MMC (S. aureus ATCC 25923 [7]) [mg/mL] | MMC (C. albicans ATCC 10231 [8]) [mg/mL] | MICMA (P. aeruginosa ATCC 27853 [9]) [mg/mL] | MICMA (S. aureus ATCC 25923 [10]) [mg/mL] | MICMA (E. faecalis ATCC 29212 [11]) [mg/mL] | MICMA (C. albicans ATCC 10231 [12]) [mg/mL] | MICMA (E. coli ATCC 25922 [13]) [mg/mL] | viability at 50 µM ([14]; Homo sapiens) [%] | Cell viability [15] | MMC (E. faecalis ATCC 29212 [16]) [mg/mL] | Reduction of cell viability [15] | Cytotoxic effect (in words) [14] | Cytotoxic effect (in words) [15] | also measured
1 | Cc1nc2ccccc2c(=O)n1CC(=O)N/N=C/c1cc(Br)ccc1O [Compound 1a, N′-[(E)-(5-bromo-2-hydroxyphenyl)methylidene]-2-(2-methyl-4-oxoquinazolin-3(4H)-yl)acetohydrazide] | 1250 (≈ 3.01 mM) | specifically active | 1250 (≈ 3.01 mM) | 1250 (≈ 3.01 mM) | 625 (≈ 1.51 mM) | 1250 (≈ 3.01 mM) | 2.5 | >5 | 5 | 0.625 | 2.5 | 1.25 | 0.625 | 1.25 | ~60 | below 50% | – | – | – | – | MIC (mg/mL) (E. faecalis ATCC 29212 [3]; 24 h): specifically active; viability at 50 µM ([15]; Homo sapiens, 50 µM, relative to untreated control, read-out: Cell viability): ~50%; IC50 ([15]; Homo sapiens, tested range 3.125 to 50 µM, read-out: IC50): ~50 µM
2 | Cc1nc2ccccc2c(=O)n1CC(=O)N/N=C/c1cc(Br)cc(Br)c1O [Compound 1b, N′-[(E)-(3,5-bromo-2-hydroxyphenyl)methylidene]-2-(2-methyl-4-oxoquinazolin-3(4H)-yl)acetohydrazide] | 5000 (≈ 10.1 mM) | specifically active | 312 (≈ 0.632 mM) | > 5000 | 625 (≈ 1.26 mM) | 1250 (≈ 2.53 mM) | 5 | >5 | 5 | 1.25 | 1.25 | 5 | 5 | 2.5 | ~50 | below 50% | >5 | approximately 50% | – | – | IC50 (S. aureus ATCC 25923 [2]; Staphylococcus aureus, ATCC25923, S. aureus, four-parameter fit of microbial viability): 85.7 µg/mL (≈ 0.173 mM); IC50 ([14]; Homo sapiens, A-431, 24 h, tested range 3.125 to 50 µM): ~50 µM
3 | COc1ccc(/C=N/NC(=O)Cn2c(C)nc3ccccc3c2=O)c(O)c1 [Compound 1d, N′-[(E)-(2-hydroxy-4-methoxyphenyl)methylidene]-2-(2-methyl-4-oxoquinazolin-3(4H)-yl)acetohydrazide] | 1250 (≈ 3.41 mM) | – | 2500 (≈ 6.82 mM) | 5000 (≈ 13.6 mM) | 5000 (≈ 13.6 mM) | 1250 (≈ 3.41 mM) | – | >5 | >5 | 1.25 | 2.5 | 5 | 1.25 | 2.5 | – | below 50% | >5 | approximately 50% | – | – | Cell viability ([14]; at 50 µM and 25 µM): below 60%
4 | COc1ccc(O)c(/C=N/NC(=O)Cn2c(C)nc3ccccc3c2=O)c1 [Compound 1e, N′-[(E)-(2-hydroxy-5-methoxyphenyl)methylidene]-2-(2-methyl-4-oxoquinazolin-3(4H)-yl)acetohydrazide] | 5000 (≈ 13.6 mM) | specifically active | 1250 (≈ 3.41 mM) | 5000 (≈ 13.6 mM) | 1250 (≈ 3.41 mM) | 5000 (≈ 13.6 mM) | 5 | 5 | – | 1.25 | 2.5 | 5 | 2.5 | 5 | – | – | >5 | – | only mild cytotoxicity | weaker cytotoxic activity | Cell viability ([14]; at all doses (3.125 to 50 µM)): above 70%
5 | Cc1nc2ccccc2c(=O)n1CC(=O)NN [Compound 2, 2-(2-methyl-4-oxoquinazolin-3(4H)-yl)acetohydrazide] | 1250 (≈ 5.38 mM) | – | 2500 (≈ 10.8 mM) | 2500 (≈ 10.8 mM) | 1250 (≈ 5.38 mM) | 1250 (≈ 5.38 mM) | 5 | >5 | 5 | – | 2.5 | >5 | – | 1.25 | – | – | >5 | – | no cytotoxic activity | overall increase in cell viability at all tested concentrations | –
